# Key:
# [1] = Pharmacokinetics assay in mice (oral, plasma); type: in vivo, Balb/c Mouse
# Description: Balb/c Mouse was used as the test animal. The pharmacokinetic behavior of compounds of Example 1, 2 and 7 administrated orally was studied in mice (plasma).
# 170 g of PEG400 and 20 g of Solutol HS-15 were added to a 250 mL glass flask, and then 10 mL of NMP was added. The solution was mixed well by ultrasound for 10 minutes to obtain a clear solution.
# 11.2 mg of the compound of Example 1, 10.8 mg of the compound of Example 2 and 9.8 mg of the compound of Example 7 were weighted to a 4 mL glass flasks respectively, […], 2.160 mL and […] of the above solution were treated by ultrasound for 10 minutes to obtain a colorless clear solution with a concentration of 5 mg/mL.
# After fasting overnight, the male Balb/c mice were administrated with the compounds (PO), the dose was 50 mg/kg, and the administration volume was 10 mL/kg.
# Blood was taken before administration and at 0.25, 0.5, 1, 2, 4, 6, 8 and 24 hours after administration. The blood samples were stored in EDTA-2K tubes, and centrifuged for 6 minutes to separate the blood plasma. The plasma samples were stored at −80° C.
# [2] = test system: human pancreatic cancer cell MiaPaca 2 xenograft (CDX) model; test: Tumor inhibition experiment in MiaPaca 2 xenograft model; type: in vivo, BALB/c nude mice
# Description: BALB/c nude mice were used as test animals. In vivo pharmacodynamic test was carried out in human pancreatic cancer cell MiaPaca 2 xenograft (CDX) model to evaluate the antitumor effect of the test compound.
# MiaPaca 2 cells were obtained from the cell bank. After recovery, the cells were added to a DMEM medium (containing 10% FBS, 1% Glu and 1% P/S), and incubated in the CO2 incubator (the incubator temperature was 37° C., and the CO2 concentration was 5%). The cells were subjected to passage after spreading 80-90% of the bottom of the culture flask. After passage, the cells were incubated in the CO2 incubator. This process was repeated until the number of cells met the required by in vivo pharmacological inoculation. Cells in log phase were collected, and counted by the automatic cell counter. The cells were re-suspended with PBS and Matrigel (1:1 by volume) based on the counting results to obtain a cell suspension (cell density: […]), which was placed in an ice box.
# Female BALB/c nude mice (6-8 weeks old, body weight: 18-22 grams) were used as test animals. The mice were maintained in individually ventilated cages (5 mice per cage) in a special pathogen-free environment. All cages, padding and water were disinfected before use. All animals had free access to standard certified commercial laboratory diets. The nude mice were labeled with disposable ear tags before the experiment. The skin of the inoculated area was sterilized with 75% medical alcohol before inoculation. Each mouse was subcutaneously inoculated with 0.1 ml (containing 8*10^6 cells) of MiaPaca 2 tumor cells on the right back. Administration was started when the average tumor volume reached 100-200 mm^3. The test compound was administrated intragastrically daily. The tumor volume (mm^3) was measured with vernier caliper twice a week. Calculation formula: V=0.5*D*d*d, wherein D and d refer to the major and minor diameter of the tumor, respectively. The anti-tumor efficacy was determined by dividing the average tumor increase volume of compound-treated animals by the average tumor increase volume of untreated animals. Calculation formula of tumor inhibition rate: TGI (%)=1−[(Vt−V0)administration group/(Vt−V0)solvent control group]*100%. All animals were euthanized after the experiment.
# ERK-1 kinase = molecular target: T1, ERK-1 kinase (Homo sapiens, UniProt P27361); test: Inhibition of ERK-1 kinase activity (LANCE Ultra TR-FRET); type: biochemical; conditions: ERK1 enzyme 0.4 nM, ATP 38.15 μM
# T1 construct: purchased Invitrogen PV3311
# T1 sequence (P27361 whole entry): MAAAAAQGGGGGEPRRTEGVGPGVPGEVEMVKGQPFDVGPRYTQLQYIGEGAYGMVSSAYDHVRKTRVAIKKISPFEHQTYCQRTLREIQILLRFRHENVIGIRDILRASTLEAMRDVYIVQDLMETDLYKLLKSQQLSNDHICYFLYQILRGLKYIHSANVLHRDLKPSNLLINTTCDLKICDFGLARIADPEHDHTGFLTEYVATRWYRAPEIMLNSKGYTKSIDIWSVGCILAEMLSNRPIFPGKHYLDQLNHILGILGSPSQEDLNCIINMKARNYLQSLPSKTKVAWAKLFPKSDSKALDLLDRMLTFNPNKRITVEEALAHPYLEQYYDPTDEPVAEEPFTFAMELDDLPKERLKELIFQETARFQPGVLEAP
# Procedure, shortened: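 Reactions contained 0.4 nM ERK1, 0.5 μM Ulight-MBP peptide and 38.15 μM ATP in pH 7.4 Hepes/MgCl2 buffer with 4% DMSO and ran 60 minutes at room temperature. Detection used Eu-anti-p-MBP with a 665/615 nm TR-FRET ratio, normalised to DMSO and no-enzyme controls. Final concentrations were 100 nM to 0.005 nM, and IC50 came from a 4-parameter fit.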
# ERK-2 kinase = molecular target: T2, ERK-2 kinase (Homo sapiens, UniProt P28482); test: Inhibition of ERK-2 kinase activity (LANCE Ultra TR-FRET); type: biochemical; conditions: ERK-2 enzyme 0.08 nM, ATP 38.15 μM
# T2 construct: purchased Invitrogen PV3313
# T2 sequence (P28482 whole entry): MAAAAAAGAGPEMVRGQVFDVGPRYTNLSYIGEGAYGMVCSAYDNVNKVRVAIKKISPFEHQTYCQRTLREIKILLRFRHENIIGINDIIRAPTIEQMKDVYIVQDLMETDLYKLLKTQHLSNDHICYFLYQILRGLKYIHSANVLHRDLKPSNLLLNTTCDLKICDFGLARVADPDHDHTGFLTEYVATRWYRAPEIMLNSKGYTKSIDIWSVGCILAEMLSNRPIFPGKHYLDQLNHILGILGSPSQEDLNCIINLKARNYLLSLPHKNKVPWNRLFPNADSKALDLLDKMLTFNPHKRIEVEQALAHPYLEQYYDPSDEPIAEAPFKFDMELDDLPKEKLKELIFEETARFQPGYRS
# Procedure, shortened: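 Recombinant ERK-2 (0.08 nM) with ULight-MBP peptide (0.5 μM) and ATP (38.15 μM) in Hepes pH 7.4 buffer, compound 100 nM to 0.005 nM final, 4% DMSO, 60 min at room temperature. Eu-anti-p-MBP TR-FRET (665/615 nm) read after EDTA stop; % inhibition versus DMSO and no-enzyme controls fitted 4-parameter for Abs_IC50.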
# [3] = Solubility (statement, no method); type: physicochemical
# [4] = conventional solvents, background statement; cited from earlier work
# [5] = mouse, male Balb/c mice, PO 50 mg/kg, plasma
# [6] = 100 mg/kg QD × 3 w, intragastric, Day 21
SMILES,"Exposure in mouse plasma ([1]; dose of 50 mg/kg, oral)","Cmax [1, 5]","MRT [1, 5]","Tmax [1, 5]","half-life [1, 5]","AUC(0-t) ([1]; mouse, male Balb/c mice, PO 50 mg/kg, plasma, read-out: AUC0-24)","Tumor volume (Mean ± SD) Day 0 ([2]; 100 mg/kg QD × 3 w, intragastric, Day 0)","TGI Day 21 [2, 6]","Tumor volume (Mean ± SD) Day 21 [2, 6]","ΔT/ΔC Day 21 [2, 6]","Inhibition of growth of xenograft ([2]; 100 mg/kg QD, continuous oral administration for 21 days)",IC50 (ERK-1 kinase),IC50 (ERK-2 kinase),Solubility compared with ERK compounds of the prior art [3],Solubility [4]
"C[C@@H](NC(=O)c1nc2cc3c(-c4ccncc4)n[nH]c3cc2[nH]1)c1ccc(F)cc1 [Example 7, (R)—N-(1-(4-fluorophenyl)ethyl)-3-(pyridin-4-yl)-1,7-dihydroimidazo[4,5-f]indazole-6-carboxamide]",good exposure,8260 ng/mL,2.33 h,1 h,0.83 h,27300 ng·h/mL,156 ± 33 mm^3,58.3%,426 ± 205 mm^3,41.63%,significantly inhibit the growth,0.41 nM,0.18 nM,higher solubility,
O=C1Nc2cc3[nH]nc(-c4ccncc4)c3cc2CN1Cc1ccccc1 [KO-947],,,,,,,,,,,,,,,poor solubility

# — patent publication US20200247815A1, “PYRAZOLYL-CONTAINING TRICYCLIC DERIVATIVE, PREPARATION METHOD THEREFOR AND USE THEREOF” (Jiangsu Hansoh Pharmaceutical Group Co., Ltd., priority 2017, published 2020)
